From ChEMBL document CHEMBL6153104, “Discovery of the first potent ROR1 degrader for the treatment of non-small cell lung cancer” (Eur J Med Chem, 2025)

What was measured:
[1] = molecular target: T1, von Hippel-Lindau disease tumor suppressor/Inactive tyrosine-protein kinase transmembrane receptor ROR1 (Homo sapiens, UniProt P40337+Q01973); assay: PROTAC activity at VHL/ROR1 in human NCI-H23 cells assessed as induction of ROR1 degradation at 1 uM incubated for 24 hrs by Western blot analysis relative to control; assay type: cell-based
[2] = molecular target: T1, von Hippel-Lindau disease tumor suppressor/Inactive tyrosine-protein kinase transmembrane receptor ROR1; assay: PROTAC activity at VHL/ROR1 in human NCI-H23 cells assessed as induction of ROR1 degradation at 0.1 uM incubated for 24 hrs by Western blot analysis relative to control; assay type: cell-based

T1 sequence (P40337 whole entry): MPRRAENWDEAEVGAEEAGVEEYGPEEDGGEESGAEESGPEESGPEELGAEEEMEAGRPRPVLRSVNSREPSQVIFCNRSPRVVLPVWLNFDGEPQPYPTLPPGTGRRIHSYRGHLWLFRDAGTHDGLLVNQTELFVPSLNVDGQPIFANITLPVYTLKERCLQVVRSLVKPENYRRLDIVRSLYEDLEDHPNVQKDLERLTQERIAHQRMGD
T1 sequence (Q01973 30-937 partner limits assumed): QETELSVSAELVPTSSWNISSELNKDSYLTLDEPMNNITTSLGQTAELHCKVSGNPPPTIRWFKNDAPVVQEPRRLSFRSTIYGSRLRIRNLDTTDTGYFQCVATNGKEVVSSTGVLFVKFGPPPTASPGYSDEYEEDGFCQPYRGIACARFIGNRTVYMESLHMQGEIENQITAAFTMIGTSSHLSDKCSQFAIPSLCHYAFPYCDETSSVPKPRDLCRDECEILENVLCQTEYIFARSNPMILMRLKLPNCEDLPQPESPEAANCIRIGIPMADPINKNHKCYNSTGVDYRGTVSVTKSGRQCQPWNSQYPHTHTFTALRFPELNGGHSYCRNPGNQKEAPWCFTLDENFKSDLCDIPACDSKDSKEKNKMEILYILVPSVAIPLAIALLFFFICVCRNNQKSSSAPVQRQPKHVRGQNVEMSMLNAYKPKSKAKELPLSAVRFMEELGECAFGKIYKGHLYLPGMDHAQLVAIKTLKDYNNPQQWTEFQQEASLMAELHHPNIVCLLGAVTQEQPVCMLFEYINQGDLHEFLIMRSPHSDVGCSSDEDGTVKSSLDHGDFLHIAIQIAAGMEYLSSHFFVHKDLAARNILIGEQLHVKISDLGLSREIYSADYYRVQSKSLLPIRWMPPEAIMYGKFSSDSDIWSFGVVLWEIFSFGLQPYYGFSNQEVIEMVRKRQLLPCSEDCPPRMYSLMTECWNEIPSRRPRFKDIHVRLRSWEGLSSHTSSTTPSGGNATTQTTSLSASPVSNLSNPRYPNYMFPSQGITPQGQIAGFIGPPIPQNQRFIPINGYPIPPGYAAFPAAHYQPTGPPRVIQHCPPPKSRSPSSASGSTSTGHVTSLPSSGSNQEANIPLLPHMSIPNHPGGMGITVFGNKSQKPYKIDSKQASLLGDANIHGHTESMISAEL

SMILES: CCN1CCC(Nc2c(Br)cnc3[nH]c(-c4ccc(N5CCN(CCCCCC(=O)N[C@H](C(=O)N6C[C@H](O)C[C@H]6C(=O)NCc6ccc(-c7scnc7C)cc6)C(C)(C)C)CC5)cc4)nc23)CC1
- Activity [1]: 78.5%
- Activity [2]: 29.3%

SMILES: CCN1CCC(Nc2c(Br)cnc3[nH]c(-c4ccc(N5CCN(C(=O)CCC(=O)N[C@H](C(=O)N6C[C@H](O)C[C@H]6C(=O)NCc6ccc(-c7scnc7C)cc6)C(C)(C)C)CC5)cc4)nc23)CC1
- Activity [1]: 85.8%
- Activity [2]: 32.5%

SMILES: CCN1CCC(Nc2c(Br)cnc3[nH]c(-c4ccc(N5CCN(C(=O)CCCCCCCCCCC(=O)N[C@H](C(=O)N6C[C@H](O)C[C@H]6C(=O)NCc6ccc(-c7scnc7C)cc6)C(C)(C)C)CC5)cc4)nc23)CC1
- Activity [1]: 99.7%
- Activity [2]: 85.1%
